According to patent US20240150293A1, “SPIROCYCLOHEXANE DERIVATIVES, PHARMACEUTICAL COMPOSITIONS CONTAINING THEM AND THEIR USES AS ANTI-APOPTOTIC INHIBITORS” (LES LABORATOIRES SERVIER, priority 2021, published 2024):

Target: Cy5-labelled Mcl1 (amino acids 171-321) C286S protein (UniProtKB Q07820) (Homo sapiens (Human), UniProt Q07820, C286S)
Assay: Inhibition of Mcl-1 by the fluorescence quenching assay (Example A, Method B)
Format: binding
Conditions: not given
Text: Fluorescence quenching assay measures the change fluorescence intensity of C-terminally Cy5-labelled Mcl1 (amino acids 171-321) C286S protein (UniProtKB® primary accession number Q07820) having an amino acid sequence:
which is linked at the C-terminus to the amino acid X which corresponds to a cysteine labelled on the sulfur with sulpho-Cyanine5 from Lumiprobe GmbH catalogue number 13380, upon binding of a C-terminally labelled peptide derived from PUMA (UniProtKB® primary accession number Q9BXH1) having an amino acid sequence:
which is linked at the C-terminus to the amino acid X′, where X′ is cysteine labelled on the sulfur with TQ5WS from AAT Bioquest catalogue number 2079.
The addition of a compound which binds competitively to the same site as the peptide will result in an increase in the fluorescence intensity of the protein due to displacement of the fluorescence quencher.
An 11-point serial dilution of each compound was prepared in DMSO, the final buffer conditions were 10 mM 4-(2-hydroxyethyl)-1-piperazineethanesulfonic acid [HEPES], 150 mM NaCl, 0.05% Tween 20, pH 7.4 and 5% DMSO. The final protein concentration in the assay was 1 nM with the peptide present at 10, 20 or 400 nM. The experiments were incubated for 2 hours at room temperature before fluorescence intensity was measured on a Biotek SynergyNeo plate reader (Excitation 620 nm, emission 680 nm). The dose response curves were plotted with XL-Fit software using a 4-Parameter Logistic Model (Sigmoidal DoseResponse Model) and the inhibitory concentrations that gave a 50% increase in fluorescence intensity was determined (IC50). The Ki values were determined from the IC50 values according to Cer et al, Nucleic Acids Res, 2009, 37 (WebServer issue): W441-W445. Inhibition constants (Ki) are determined from complete binding inhibition curves (cKi) or from estimated from incomplete binding inhibition curves (eKi) in most cases due to low activity.

Chain of Cy5-labelled Mcl1 (amino acids 171-321) C286S protein (Q07820 171-321 C286S): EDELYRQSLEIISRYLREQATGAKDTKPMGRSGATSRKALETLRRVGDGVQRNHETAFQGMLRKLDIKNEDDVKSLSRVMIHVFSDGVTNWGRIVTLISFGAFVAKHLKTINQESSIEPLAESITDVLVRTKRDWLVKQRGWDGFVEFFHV

Ki [nM] | Compound
22.7 | O=C(O)[C@]1(Nc2cccc(Cl)c2)CC[C@@]2(CC1)c1ccccc1CC2CC(COc1ccnc2c1CCCC2)C(F)F (single isomer, unassigned) [Example 512, (1r,4r)-4-(3-chloroanilino)-2′-(3,3-difluoro-2-{[(5,6,7,8-tetrahydroquinolin-4-yl)oxy]methyl}propyl)-2′,3′-dihydrospiro[cyclohexane-1,1′-indene]-4-carboxylic acid]
27.9 | O=C(O)[C@]1(Nc2cccc(Cl)c2)CC[C@@]2(CC1)c1ccccc1CC2CC(COc1ccnc2c1CCCC2)C(F)F (single isomer, unassigned) [Example 513, (1r,4r)-4-(3-chloroanilino)-2′-(3,3-difluoro-2-{[(5,6,7,8-tetrahydroquinolin-4-yl)oxy]methyl}propyl)-2′,3′-dihydrospiro[cyclohexane-1,1′-indene]-4-carboxylic acid]
123 | CC(CC1Cc2ccccc2[C@]12CC[C@@](Nc1cccc(Cl)c1)(C(=O)O)CC2)C(C)Oc1ccnc2c1CCC2 (single isomer, unassigned) [Example 614, (1r,4r)-4-(3-chloroanilino)-2′-{3-[(6,7-dihydro-5H-cyclopenta[b]pyridin-4-yl)oxy]-2-methylbutyl}-2′,3′-dihydrospiro[cyclohexane-1,1′-indene]-4-carboxylic acid]
241 | CC(CC1Cc2ccccc2[C@]12CC[C@@](Nc1cccc(Cl)c1)(C(=O)O)CC2)C(C)Oc1ccnc2c1CCC2 (single isomer, unassigned) [Example 615, (1r,4r)-4-(3-chloroanilino)-2′-{3-[(6,7-dihydro-5H-cyclopenta[b]pyridin-4-yl)oxy]-2-methylbutyl}-2′,3′-dihydrospiro[cyclohexane-1,1′-indene]-4-carboxylic acid]
93.5 | CC(CC1Cc2ccccc2[C@]12CC[C@@](Nc1cccc(Cl)c1)(C(=O)O)CC2)C(C)Oc1ccnc2c1CCC2 (single isomer, unassigned) [Example 617, (1r,4r)-4-(3-chloroanilino)-2′-{3-[(6,7-dihydro-5H-cyclopenta[b]pyridin-4-yl)oxy]-2-methylbutyl}-2′,3′-dihydrospiro[cyclohexane-1,1′-indene]-4-carboxylic acid]
2.8 | CC1CCN(C)c2nccc(OC[C@H](C)C[C@H]3Cc4ccccc4[C@]34CC[C@@](Nc3cccc(Cl)c3)(C(=O)O)CC4)c21 (single isomer, unassigned) [Example 644]

Same assay, conditions: Ki determined from IC50

Ki [nM] | Compound
14.4 | C[C@@H](COc1ccnc2ccsc12)CN1Cc2ccccc2[C@]12CC[C@@](Nc1cccc(Cl)c1)(C(=O)O)CC2 [Example 38, (1s,4S)-4-(3-chloroanilino)-2′-{(2R)-2-methyl-3-[(thieno[3,2-b]pyridin-7-yl)oxy]propyl}-2′,3′-dihydrospiro[cyclohexane-1,1′-isoindole]-4-carboxylic acid]
44.9 | C[C@@H](COc1cccc2[nH]ccc12)CN1Cc2ccccc2[C@]12CC[C@@](Nc1cccc(Cl)c1)(C(=O)O)CC2 [Example 39, (1s,4S)-4-(3-chloroanilino)-2′-{(2R)-3-[(1H-indol-4-yl)oxy]-2-methylpropyl}-2′,3′-dihydrospiro[cyclohexane-1,1′-isoindole]-4-carboxylic acid]
437 | N#Cc1cccc(N[C@]2(C(=O)O)CC[C@@]3(CC2)C(Br)=Cc2ccccc23)c1 [Example 82, (1s,4s)-2′-bromo-4-(3-cyanoanilino)spiro[cyclohexane-1,1′-indene]-4-carboxylic acid]
424 | O=C(O)[C@]1(Nc2cccc(C(F)(F)F)c2)CC[C@]2(CC1)C(Br)=Cc1ccccc12 [Example 85, (1s,4s)-2′-bromo-4-[3-(trifluoromethyl)anilino]spiro[cyclohexane-1,1′-indene]-4-carboxylic acid]
503 | Cc1cccc(N[C@]2(C(=O)O)CC[C@@]3(CC2)C(Br)=Cc2ccccc23)c1 [Example 88, (1s,4s)-2′-bromo-4-(3-methylanilino)spiro[cyclohexane-1,1′-indene]-4-carboxylic acid]
